According to patent publication US10098913B2, “Composition of stem cells having highly expressed FAS ligand” (UNIVERSITY OF SOUTHERN CALIFORNIA, priority 2013, dated 2018):
Entries after “also recorded” stand apart in the source; their conditions may differ.

Columns and labels:
Fas-L = Fas-L expression in MSCs (western blotting); assay type: cell-based, mice
Source text: Bone marrow cells were flushed from the bone cavity of femurs and tibias of B6 mice (C57BL/6 J) with about 2% heat inactivated fetal bovine serum (Equitech-Bio, Kerrville, Tex., USA) in PBS, and MSCs positive for CD73, CD90, CD105, CD146, CD166, Sca-1 and SSEA-4, but negative for CD11b, CD31, CD34 and CD45, were obtained as previously described by Liu et al. “Mesenchymal stem cell-based tissue regeneration is governed by recipient T lymphocytes via IFN-γ and TNF-α” Nat Med 2011, 17:1594-1601. The entire content of this publication is incorporated herein by reference. The cells with MSC character were cultured with alpha minimum essential medium (Invitrogen) supplemented with about 20% fetal bovine serum and 2 mM L-glutamine (Invitrogen) in a humidified atmosphere of about 95% air and about 5% CO2 at about 37° C. for about 3 days before co-culture. See Oyajobi et al. “Dual effects of macrophage inflammatory protein-1alpha on osteolysis and tumor burden in the murine 5TGM1 model of myeloma bone disease” Blood 2003, 102:311-319. The entire content of this publication is incorporated herein by reference. Additionally, MSCs, which had no Fas-L, were isolated from generalized lymphoproliferative disease (gld) mice for use in comparative experiments. B6 and gld mice in the same background ([…]) were purchased from the Jackson Laboratory. […]

5TGM1 MM cells [1] = assay: 5TGM1 multiple myeloma model mice: survival and cancroid pearls; assay type: in vivo
Description: A 5TGM1 MM model was conducted in weight-matched, 8-week-old to 10-week-old female bg-nu/nu-xid mice from the Jackson Lab (Bar Harbor, Me., USA). The use of animals for research was approved through the Institutional Ethics Committee/Institutional Review Board of the University of Southern California (protocol #10941). The mice were housed in isolator cages, and autoclaved chow and acidified water were provided ad libitum. Disseminated MM was induced through the intravenous inoculation of about 6×10^6 5TGM1 cells in about 200 μl PBS in bg-nu/nu-xid mice through the tail vein (about 6×10^6/10 g body weight). After tumor cell inoculation, multiple MM model mice were randomized to receive the injection of either MSCs (once, about 1×10^6 MSCs/10 g body weight) via the tail vein (MSC group) or […] (L-PAM; weekly, about 50 μg/10 g body weight) in the abdominal cavity (L-PAM group), as shown in FIG. 1A. See Akiyama et al. “Mesenchymal-stem-cell-induced immunoregulation involves FAS-ligand/FAS-mediated T cell apoptosis” Cell Stem Cell 2012, 10:544-555. The entire content of this publication is incorporated herein by reference. L-Phenylalanine mustard, or L-PAM, otherwise known as melphalan, is used as the standard treatment in older MM patients. See Musto P. et al. “Melphalan: old and new uses of a still master drug for multiple myeloma” Expert Opin Investig Drugs 2007, 16:1467-1487. The entire content of this publication is incorporated herein by reference. MM model mice with no treatment served as the positive control (MM group). Original nude mice with no treatment served as the negative control (Control group). The 6-week survival rates of the mice in different groups were compared. After about 4 weeks of feeding, the cancroid pearls in the neck, tail root and abdominal cavity of the mice in different groups were identified for analysis. […]

5TGM1 MM cells [2] = assay: Microcomputed tomography of bone density in MM model mice; assay type: in vivo; conditions: microcomputed tomography after about 4 weeks; P<0.05
Description: A 5TGM1 MM model was conducted in weight-matched, 8-week-old to 10-week-old female bg-nu/nu-xid mice from the Jackson Lab (Bar Harbor, Me., USA). The use of animals for research was approved through the Institutional Ethics Committee/Institutional Review Board of the University of Southern California (protocol #10941). The mice were housed in isolator cages, and autoclaved chow and acidified water were provided ad libitum. Disseminated MM was induced through the intravenous inoculation of about 6×10^6 5TGM1 cells in about 200 μl PBS in bg-nu/nu-xid mice through the tail vein (about 6×10^6/10 g body weight). […]
The cross-sectional volumetric bone mineral density was measured in right femur diaphysis of the mice in each group after about 4 weeks of feeding (for each group, n=6). […] Using two-dimensional images, a region of interest in secondary spongiosa was manually drawn near the endocortical surface, and cancellous bone morphometric parameters including the bone volume relative to the tissue volume (percentage) and the trabecular thickness (millimeters) were assessed. A trained observer blinded to the composition of the different groups and treatments received analyzed the number and surface area of radiolucent lesions.

5TGM1 MM cells [3] = assay: MM cell metastasis in lungs and kidneys of MM model mice; assay type: in vivo; conditions: after about 4 weeks
Description: A 5TGM1 MM model was conducted in weight-matched, 8-week-old to 10-week-old female bg-nu/nu-xid mice from the Jackson Lab (Bar Harbor, Me., USA). The use of animals for research was approved through the Institutional Ethics Committee/Institutional Review Board of the University of Southern California (protocol #10941). The mice were housed in isolator cages, and autoclaved chow and acidified water were provided ad libitum. Disseminated MM was induced through the intravenous inoculation of about 6×10^6 5TGM1 cells in about 200 μl PBS in bg-nu/nu-xid mice through the tail vein (about 6×10^6/10 g body weight). After tumor cell inoculation, multiple MM model mice were randomized to receive the injection of either MSCs (once, about 1×10^6 MSCs/10 g body weight) via the tail vein (MSC group) or […] (L-PAM; weekly, about 50 μg/10 g body weight) in the abdominal cavity (L-PAM group), as shown in FIG. 1A. See Akiyama et al. “Mesenchymal-stem-cell-induced immunoregulation involves FAS-ligand/FAS-mediated T cell apoptosis” Cell Stem Cell 2012, 10:544-555. The entire content of this publication is incorporated herein by reference. L-Phenylalanine mustard, or L-PAM, otherwise known as melphalan, is used as the standard treatment in older MM patients. […]

[4] = neck, tail root and abdominal cavity, after about 4 weeks, versus MM group

Structure (SMILES): CC(=O)Oc1ccccc1C(=O)O [Aspirin, aspirin]
- expression of Fas-L in MSCs after aspirin treatment (Fas-L): enhanced expression of Fas-L in MSCs

Structure (SMILES): N[C@@H](Cc1ccc(N(CCCl)CCCl)cc1)C(=O)O [L-PAM, L-Phenylalanine mustard]
- 6-week survival rate (5TGM1 MM cells [1]; MM model mice, MSCs once via tail vein, L-PAM weekly in abdominal cavity, versus untreated MM group, P<0.05): prolonged survival compared with the MM group; also recorded: higher than the MM group
- number of cancroid pearls (5TGM1 MM cells [1]; [4]): no significant difference
- size of cancroid pearls (5TGM1 MM cells [1]; [4]): smaller compared with the MM group
- bone density (BD) in lumbus and collum femoris (5TGM1 MM cells [2]): MM group was much lower than those of the MSC group, the L-PAM group
- metastasis rate in the kidney tissue (5TGM1 MM cells [3]): no significant difference
